SMILES strings stand for the structures. pIC50: −log10 of the molar value. Where a name gives a salt, the structure may show the parent alone. Read-outs that look alike come from different tables or passages of the source. Bounds are passed on as bounds.

In one assay the target is Falcipain-2 (Plasmodium falciparum, UniProt Q8I6U4). Nature of the assay: Falcipain-2 enzymatic assay (fluorogenic peptide substrate, quenched endpoint read). The format is biochemical. The method, then: (§1) 1 Determination of Falcipain-2, Falcipain-3, Vivapain-2, Cathepsin K Cathepsin S, Cathepsin L, and Cathepsin B proteolytic catalytic activity
(§2) Assays for Falcipain-2, Faicipain-3, and Vivapain-2 are carried out with parasitic recombinant enzymes. Cathepsins K, S, L, and B are carried out with human recombinant enzymes. Standard assay conditions for the determination of kinetic constants used a fluorogenic peptide substrate, typically H-D-VLR-AFC (Falcipain-2, Falcipain-3, Vivapain-2), Z-FR-AFC (Cathepsin K, L, B), or KQKLR-AMC (Cathepsin S) and are determined in 100 mM sodium acetate, pH 5.5, containing 10 mM DTT and 0.5 mM CHAPS (Falcipain-2, Falcipain-3, Vivapain-2), and 100 mM sodium acetate, pH 5.5, containing 5 mM L-cysteine, 1mM CHAPS and 5mM EDTA (Cathepsin K, L, B), or 50mM MES, pH 6.5, containing 0.5mM CHAPS, 10mM L-CYS, 5mM EDTA (Cathepsin S). Stock substrate solutions are prepared at 20 mM in DMSO. The activity assays contained 30 uM substrate (Falcipain-2, Falcipain-3, Vivapain-2), 20 uM substrate (Cathepsin K), 25uM substrate (Cathepsin B), 5uM substrate (Cathepsin L), and 30uM substrate (Cathepsin S). All assays contained 1% DMSO. […] All assays are conducted at ambient temperature as end point assays being quenched after 60 minutes with the exception of Cathepsin S at 90 minutes, with 16.6 uM E-64 in 1% DMSO. Product formation (AFC or AMC) is determined from fluorescence (excitation at 405nm; emission at 530nm, AFC, or excitation at 360 nm; emission at 460 nm, AMC) monitored with a LJL Aquest (Molecular Devices) fluorescent plate reader. In the case of kinetic reads (used in mechanism of action studies), the reaction is not quenched but is read in the plate reader every 3 minutes for approximately 90 minutes. In addition, the mechanism of action studies for Falcipain-2 utilize Z-LR-AMC as the substrate. Product formation is determined from the fluorescence of AMC, measured with a LJL Acquest (Molecular Devices) fluorescent plate reader (excitation at 360nm; emission at 460nm).
(§3) Potential inhibitors are evaluated using the quenched read (endpoint) method. Assays are carried out in the presence of variable concentrations of test compound. Reactions are initiated by addition of enzyme and substrate to wells containing inhibitor stamped in 100% DMSO. For endpoint assays, the reaction is quenched with the addition of E64. Dose response data is fit to an IC50 curve with preset fitting tools according to equation 1: y = a + (b-a)/(1 + (10^x /10^c ())^d ) [formula] where y is the response at a particular inhibitor concentration x, a is the minimum response value, b is the maximum response value, c is the IC50, and d is the slope of the IC50 curve. […]. For a more direct measurement of the KI and the binding mechanism, we performed mechanism of action studies that included a titration of substrate and inhibitor with a kinetic read. […]

The test system of assay [1] is Plasmodium falciparum parasite. Description: Whole cell assay: whole cell activity against the parasite. Format: cell-based. As to conditions: Plasmodium falciparum.
In a further assay the target is Falcipain-3 (Plasmodium falciparum, UniProt Q8IIL0). Nature of the assay: Falcipain-3 enzymatic assay (fluorogenic peptide substrate, quenched endpoint read). Format: biochemical. Conditions: parasitic recombinant enzyme, 30 uM H-D-VLR-AFC, pH 5.5, quenched after 60 minutes; read-out: Falcipain-3 (IC50). The method, then:
as §1, §2, §3

[2] abbreviates: parasitic recombinant enzyme, 30 uM H-D-VLR-AFC, pH 5.5, quenched after 60 minutes, read-out: Falcipain-2 (IC50).

Falcipain-2, sequence (Q8I6U4 244-484): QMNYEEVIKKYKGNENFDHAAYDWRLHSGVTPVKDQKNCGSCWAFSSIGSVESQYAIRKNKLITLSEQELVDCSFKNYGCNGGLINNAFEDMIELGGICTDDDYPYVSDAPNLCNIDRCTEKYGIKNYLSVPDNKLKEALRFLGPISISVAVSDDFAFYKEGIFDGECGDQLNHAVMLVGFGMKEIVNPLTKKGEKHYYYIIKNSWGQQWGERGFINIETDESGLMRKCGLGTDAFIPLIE
Falcipain-3, sequence (Q8IIL0 243-492): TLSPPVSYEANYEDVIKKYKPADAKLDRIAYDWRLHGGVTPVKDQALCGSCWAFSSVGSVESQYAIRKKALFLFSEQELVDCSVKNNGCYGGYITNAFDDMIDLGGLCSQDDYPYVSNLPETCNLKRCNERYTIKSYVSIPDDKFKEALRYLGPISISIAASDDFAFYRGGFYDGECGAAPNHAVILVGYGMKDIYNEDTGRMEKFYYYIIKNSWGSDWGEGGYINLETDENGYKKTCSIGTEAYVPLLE

The term pIC50 denotes −log10 of the IC50, conventionally taken in molar units. Take `CN1CCN(C(=O)C2CCN(Cc3ccc(C(=O)NN(c4nc(C#N)ncc4Cl)C4CCOCC4)cc3)CC2)CC1` [Example 36, N'-(5-Chloro-2-cyano-4-pyrimidinyl)-4-({4-[(4-methyl-1-piperazinyl)carbonyl]-1-piperidinyl}methyl)-N'-(tetrahydro-2H-pyran-4-yl)henzohydrazide trifluoroacetate]: the pIC50 against Falcipain-2 is 8.60 to 9.00; in assay [1], 6.82 to 7.82.
`CC(=O)N1CCC(N(NC(=O)c2ccc(CN3CCN(C)CC3)cc2)c2nc(C#N)ncc2Br)CC1` [Example 37, N'-(1-acetyl-4-piperidinyl)-N'-(5-bromo-2-cyano-4-pyrimidinyl)-4-[(4-methyl-1-piperazinyl)methyl]benzohydrazide trifluoroacetate]: the pIC50 was over 9.00 at Falcipain-2 (setting [2]), 6.82 to 7.82 at Falcipain-3 and 6.82 to 7.82 in assay [1].
Turning to `CN1CCN(Cc2ccc(C(=O)NN(c3nc(C#N)ncc3Br)C3CCOCC3)cc2)CC1` [Example 42, N'-(5-bromo-2-cyano-4-pyrimidinyl)-4-[(4-methyl-1-piperazinyl)methyl]-N'-(tetrahydro-2H-pyran-4-yl)benzohydrazide trifluoroacetate], the pIC50 on Falcipain-2 was 8.60 to 9.00; in assay [1], 6.82 to 7.82.
`CN1CCN(Cc2ccc(C(=O)NN(c3nc(C#N)ncc3Cl)C3CCCC3)cc2)CC1` [Example 50, N'-(5-chloro-2-cyano-4-pyrimidinyl)-N'-cyclopentyl-4-[(4-methyl-1-piperazinyl)methyl]benzohydrazide trifluoroacetate]: the pIC50 against Falcipain-2 was 8.60 to 9.00; in assay [1], 6.82 to 7.82.
For the compound `CC(C)CCN(C)Cc1ccc(C(=O)NN(c2nc(C#N)ncc2Cl)C2CCCC2)cc1` [Example 63, N'-(5-chloro-2-cyano-4-pyrimidinyl)-N'-cyclopentyl-4-{[methyl(3-methylbutyl)amino]methyl}benzohydrazide trifluoroacetate], the pIC50 on Falcipain-2 (setting [2]) was over 9.00; at Falcipain-3 it was 7.82 to 8.60; in assay [1] it was 7.82 to 8.60.

For the origin of these results see EP2030621A1, “Novel substituted pyrimidines as cysteine protease inhibitors” (GLAXO GROUP LIMITED, priority 2007, dated 2009).
